Experimental data as given in ChEMBL document CHEMBL1139514, “Methyl substitution of 2-aminobicyclo[3.1.0]hexane 2,6-dicarboxylate (LY354740) determines functional activity at metabotropic glutamate receptors: identification of a subtype selective mGlu2 receptor agonist” (J Med Chem, 2005).

How the values were obtained:
[1] = molecular target: T1, Metabotropic glutamate receptor 2 (Homo sapiens, UniProt Q14416); test: Evaluation of the functional effect on cAMP responses in RGT cells expressing human mGlu2 receptor; assay type: cell-based
T1 sequence (Q14416 whole entry): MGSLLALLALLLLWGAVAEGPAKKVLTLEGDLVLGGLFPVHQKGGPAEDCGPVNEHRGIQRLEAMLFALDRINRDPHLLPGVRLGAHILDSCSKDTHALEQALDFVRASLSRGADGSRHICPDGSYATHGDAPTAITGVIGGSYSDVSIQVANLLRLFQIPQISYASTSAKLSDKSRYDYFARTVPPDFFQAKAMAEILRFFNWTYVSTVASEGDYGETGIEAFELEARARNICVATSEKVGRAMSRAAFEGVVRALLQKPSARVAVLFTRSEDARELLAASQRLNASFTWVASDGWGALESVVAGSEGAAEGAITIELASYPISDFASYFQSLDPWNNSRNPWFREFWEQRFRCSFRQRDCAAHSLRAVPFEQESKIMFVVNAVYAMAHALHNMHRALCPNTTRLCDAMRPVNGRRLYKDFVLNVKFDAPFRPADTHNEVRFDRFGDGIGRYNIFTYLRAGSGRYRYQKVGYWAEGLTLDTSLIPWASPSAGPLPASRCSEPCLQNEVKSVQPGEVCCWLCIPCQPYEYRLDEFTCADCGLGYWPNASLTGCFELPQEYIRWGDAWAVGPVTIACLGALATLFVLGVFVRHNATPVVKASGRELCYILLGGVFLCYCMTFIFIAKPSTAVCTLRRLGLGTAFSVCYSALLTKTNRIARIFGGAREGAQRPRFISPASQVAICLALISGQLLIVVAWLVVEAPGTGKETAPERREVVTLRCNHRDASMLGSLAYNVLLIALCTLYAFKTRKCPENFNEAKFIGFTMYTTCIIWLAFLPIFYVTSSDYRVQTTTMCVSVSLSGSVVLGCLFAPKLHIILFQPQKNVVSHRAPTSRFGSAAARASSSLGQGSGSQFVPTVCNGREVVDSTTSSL

[2] = molecular target: T2, Metabotropic glutamate receptor 3 (Homo sapiens, UniProt Q14832); test: Displacement of [3H]-341495 binding to membranes expressing recombinant human Metabotropic glutamate receptor 3
T2 sequence (Q14832 whole entry): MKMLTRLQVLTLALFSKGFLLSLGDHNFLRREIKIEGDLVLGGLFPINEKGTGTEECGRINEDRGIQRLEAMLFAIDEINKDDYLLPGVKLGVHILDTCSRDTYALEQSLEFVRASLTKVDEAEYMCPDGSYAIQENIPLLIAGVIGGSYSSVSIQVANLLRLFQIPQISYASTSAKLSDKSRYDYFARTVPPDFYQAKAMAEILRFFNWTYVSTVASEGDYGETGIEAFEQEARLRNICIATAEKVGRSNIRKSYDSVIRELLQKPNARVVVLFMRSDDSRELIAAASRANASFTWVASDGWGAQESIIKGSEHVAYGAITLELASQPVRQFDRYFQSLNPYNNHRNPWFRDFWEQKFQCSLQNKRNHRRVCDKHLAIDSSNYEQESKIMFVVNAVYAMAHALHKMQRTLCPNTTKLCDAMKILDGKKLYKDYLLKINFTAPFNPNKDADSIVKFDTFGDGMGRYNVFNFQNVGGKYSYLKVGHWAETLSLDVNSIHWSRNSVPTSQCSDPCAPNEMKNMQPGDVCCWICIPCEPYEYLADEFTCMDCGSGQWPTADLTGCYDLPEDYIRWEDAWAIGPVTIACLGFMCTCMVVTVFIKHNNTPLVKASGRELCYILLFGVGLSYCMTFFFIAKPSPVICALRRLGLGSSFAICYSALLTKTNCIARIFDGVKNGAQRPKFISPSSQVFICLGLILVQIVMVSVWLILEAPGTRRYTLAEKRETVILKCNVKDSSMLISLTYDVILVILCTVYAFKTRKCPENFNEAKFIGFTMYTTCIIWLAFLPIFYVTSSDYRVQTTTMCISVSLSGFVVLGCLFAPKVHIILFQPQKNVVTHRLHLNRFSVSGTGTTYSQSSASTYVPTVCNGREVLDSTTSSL

[3] = molecular target: T1, Metabotropic glutamate receptor 2; test: Displacement of [3H]-341495 binding to membranes expressing recombinant human Metabotropic glutamate receptor 2
[4] = molecular target: T2, Metabotropic glutamate receptor 3; test: Evaluation of the functional effect on cAMP responses in RGT cells expressing human mGlu3 receptor; assay type: cell-based

| IC50 [1] [nM] | Ki [2] [nM] | Ki [3] [nM] | EC50 [1] [nM] | EC50 [4] [nM] | IC50 [4] [nM] | SMILES |
| --- | --- | --- | --- | --- | --- | --- |
| 1750 | 146 | – | – | – | – | C[C@@H]1C[C@H]2[C@H](C(=O)O)[C@H]2[C@]1(N)C(=O)O |
| – | > 100000 | > 100000 | > 100000 | > 100000 | – | C[C@H]1C[C@](N)(C(=O)O)[C@H]2[C@H](C(=O)O)[C@H]21 |
| – | 511 | – | 45 | 34 | – | C[C@H]1C[C@@](N)(C(=O)O)[C@@H]2[C@@H](C(=O)O)[C@@H]21 |
| – | – | 74 | 10 | – | – | N[C@@]1(C(=O)O)CC[C@H]2[C@H](C(=O)O)[C@H]21 |
| – | 570 | 409 | 397 | – | 2940 | C[C@@H]1C[C@@](N)(C(=O)O)[C@@H]2[C@@H](C(=O)O)[C@@H]21 (stereo in doubt; 13) |
| – | 302 | 165 | 161 | – | 1050 | C[C@@H]1C[C@@](N)(C(=O)O)[C@@H]2[C@@H](C(=O)O)[C@@H]21 (stereo in doubt; (+)-13) |
